A short description of assay [1]: Cytotoxicity against human HCT116 cells harboring wild type B-Raf assessed as growth inhibition after 72 hrs by MTT assay. The class given is functional, cell-based. To be noted: HCT-116, 72 h.
For assay [2], the system named is HT-29. The experiment in a line: Cytotoxicity against human HT-29 cells harboring B-Raf V600E mutant assessed as growth inhibition after 72 hrs by MTT assay. The class given is functional, cell-based. Particulars: HT-29, 72 h.
A short description of assay [3]: Cytotoxicity against human COLO205 cells harboring B-Raf V600E mutant assessed as growth inhibition after 72 hrs by MTT assay. The assay is classed as functional, cell-based. To be noted: COLO 205, 72 h.
Assay [4] concerns the target Serine/threonine-protein kinase B-raf (Homo sapiens, UniProt P15056). Nature of the assay: Inhibition of recombinant wild type full length human GST-tagged B-Raf expressed in baculovirus expression system using Z'-LYTE Ser/Thr3 peptide as substrate incubated for 1 hr by FRET-based Z'-LYTE assay.
Assay [5] has as its target Serine/threonine-protein kinase B-raf (Homo sapiens, UniProt P15056, V600E). The experiment in a line: Inhibition of recombinant human N-terminal GST-tagged B-Raf V600E mutant expressed in baculovirus expression system using Z'-LYTE Ser/Thr3 peptide as substrate incubated for 1 hr by FRET-based Z'-LYTE assay.
Assay [6] concerns COLO 205. The experiment in a line: Selectivity ratio of IC50 for human HCT116 cells harboring wild type B-Raf to IC50 for human COLO205 cells harboring B-Raf V600E mutant. The assay is classed as functional.
The subject of assay [7] is HCT-116. The experiment in a line: Selectivity ratio of IC50 for human HCT116 cells harboring wild type B-Raf to IC50 for human HT-29 cells harboring B-Raf V600E mutant. The assay is classed as functional.

This note sets out measurements from ChEMBL document CHEMBL3797077, “Design and synthesis of N-(4-aminopyridin-2-yl)amides as B-Raf(V600E) inhibitors” (Bioorg Med Chem Lett, 2016).

Chain of Serine/threonine-protein kinase B-raf (Homo sapiens, UniProt P15056) (P15056 whole entry): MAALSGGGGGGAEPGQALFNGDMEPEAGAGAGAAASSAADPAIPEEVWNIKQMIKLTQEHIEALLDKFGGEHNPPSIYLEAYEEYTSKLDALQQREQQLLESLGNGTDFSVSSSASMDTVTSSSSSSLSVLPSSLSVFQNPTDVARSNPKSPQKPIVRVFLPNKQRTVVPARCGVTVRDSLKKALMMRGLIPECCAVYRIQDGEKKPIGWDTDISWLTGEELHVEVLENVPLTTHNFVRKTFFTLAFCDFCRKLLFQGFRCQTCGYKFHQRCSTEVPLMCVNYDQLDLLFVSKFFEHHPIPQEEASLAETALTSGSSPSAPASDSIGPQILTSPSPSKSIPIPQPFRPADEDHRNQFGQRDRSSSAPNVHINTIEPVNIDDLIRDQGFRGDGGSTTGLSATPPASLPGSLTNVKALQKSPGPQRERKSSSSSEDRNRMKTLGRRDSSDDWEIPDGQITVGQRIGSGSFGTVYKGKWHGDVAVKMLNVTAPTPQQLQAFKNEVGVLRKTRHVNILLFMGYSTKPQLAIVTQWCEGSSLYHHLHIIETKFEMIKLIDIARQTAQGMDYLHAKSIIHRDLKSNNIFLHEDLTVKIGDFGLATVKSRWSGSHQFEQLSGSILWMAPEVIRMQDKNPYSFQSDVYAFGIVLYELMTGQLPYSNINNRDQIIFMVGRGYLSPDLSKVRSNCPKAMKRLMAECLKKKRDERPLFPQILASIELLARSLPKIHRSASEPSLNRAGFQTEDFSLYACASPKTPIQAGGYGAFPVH
Chain of Serine/threonine-protein kinase B-raf (Homo sapiens, UniProt P15056, V600E) (P15056 2-766 V600E limits assumed): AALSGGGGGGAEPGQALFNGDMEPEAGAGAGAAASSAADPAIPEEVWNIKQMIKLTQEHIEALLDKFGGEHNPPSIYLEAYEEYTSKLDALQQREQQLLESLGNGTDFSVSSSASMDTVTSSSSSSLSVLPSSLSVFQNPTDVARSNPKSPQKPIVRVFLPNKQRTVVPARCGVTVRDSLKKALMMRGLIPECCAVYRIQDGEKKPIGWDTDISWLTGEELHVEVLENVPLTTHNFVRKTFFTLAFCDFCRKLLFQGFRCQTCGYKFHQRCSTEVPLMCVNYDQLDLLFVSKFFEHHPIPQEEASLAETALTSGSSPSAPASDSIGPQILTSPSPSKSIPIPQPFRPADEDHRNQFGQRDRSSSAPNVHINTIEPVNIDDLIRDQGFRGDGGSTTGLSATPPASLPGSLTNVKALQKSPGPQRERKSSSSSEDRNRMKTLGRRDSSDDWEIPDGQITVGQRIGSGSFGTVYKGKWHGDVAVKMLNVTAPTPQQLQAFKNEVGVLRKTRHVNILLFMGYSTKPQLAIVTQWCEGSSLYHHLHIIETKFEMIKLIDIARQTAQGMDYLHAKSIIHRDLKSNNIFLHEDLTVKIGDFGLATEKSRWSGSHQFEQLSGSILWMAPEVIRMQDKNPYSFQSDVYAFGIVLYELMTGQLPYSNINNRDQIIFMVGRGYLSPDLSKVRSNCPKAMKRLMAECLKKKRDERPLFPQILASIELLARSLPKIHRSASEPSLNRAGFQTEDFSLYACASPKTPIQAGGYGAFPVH

With `N#Cc1c(Oc2ccc(F)c(NC(=O)Cc3cccc(C(F)(F)F)c3)c2)ccc2nc(NC(=O)C3CC3)sc12`, the IC50 in assay [1] worked out at 362 nM; in assay [2], 33 nM; in assay [3] it was 25 nM; in assay [4] it was 77 nM.

Consider `CCC(=O)Nc1cc(Nc2cccc(NC(=O)c3cccc(C4CC4)c3)c2)ccn1`, for which the IC50 in assay [5] is 125 nM.

Consider `O=C(Nc1cccc(Nc2ccnc(NC(=O)C3CCCCC3)c2)c1)c1cccc(C2CC2)c1`, for which the half-inhibitory concentration (IC50) in assay [5] came out at 563 nM.

Turning to `CC(C)(C)c1cccc(C(=O)Nc2cccc(Nc3ccnc(NC(=O)C4CC4)c3)c2)c1`, the IC50 in assay [1] came out at 1380 nM; in assay [2], 991 nM; in assay [3], 787 nM; in assay [5], 20 nM; in assay [4] it was 240 nM.

As for `O=C(Nc1cccc(Nc2ccnc(NC(=O)C3CC3)c2)c1)c1cccc(Cl)c1`, the IC50 in assay [5] worked out at 785 nM.

As for `O=C(Nc1cccc(Nc2ccnc(NC(=O)C3CC3)c2)c1)c1cccc([N+](=O)[O-])c1`, in assay [5], the 50% inhibitory concentration (IC50) was 1510 nM.

On to `CC(C)(C#N)c1cccc(C(=O)Nc2cccc(Nc3ccnc(NC(=O)C4CC4)c3)c2)c1`, for which the half-maximal inhibitory concentration (IC50) is 1090 nM in assay [1]; 94 nM in assay [2]; 136 nM in assay [3]; 38 nM in assay [5]; 476 nM in assay [4]. The “Ratio IC50” value in assay [6] and in assay [7] was 12 throughout.

In the case of `O=C(Nc1cccc(Nc2ccnc(NC(=O)C3CC3)c2)c1)c1ccc(C(F)(F)F)cc1`, in assay [5], the 50% inhibitory concentration (IC50) was greater than 10000 nM.

Consider `O=C(Nc1cccc(Nc2ccnc(NC(=O)C3CC3)c2)c1)c1cccc(C2CC2)c1`, for which the IC50 was 221 nM in assay [1]; 92 nM in assay [2]; 111 nM in assay [3]; 35 nM in assay [5]; 453 nM in assay [4].

Take `CCc1cccc(C(=O)Nc2cccc(Nc3ccnc(NC(=O)C4CC4)c3)c2)c1`: the IC50 in assay [5] turned out to be 110 nM.

Turning to `O=C(Nc1cccc(Nc2ccnc(NC(=O)C3CCC3)c2)c1)c1cccc(C2CC2)c1`, in assay [5], the half-maximal inhibitory concentration (IC50) turned out to be 182 nM.

Turning to `N#Cc1cccc(C(=O)Nc2cccc(Nc3ccnc(NC(=O)C4CC4)c3)c2)c1`, the half-maximal inhibitory concentration (IC50) in assay [5] is 3530 nM.

For `O=C(Nc1cccc(Nc2ccnc(NC(=O)C3CC3)c2)c1)c1cccc(C(F)(F)F)c1`, the IC50 in assay [5] was 141 nM.

Regarding `O=C(Nc1cccc(Nc2ccnc(NC(=O)C3CC3)c2)c1)c1ccccc1C(F)(F)F`, in assay [5], the IC50 was greater than 10000 nM.

In the case of `CC(C)(C)C(=O)Nc1cc(Nc2cccc(NC(=O)c3cccc(C4CC4)c3)c2)ccn1`, the IC50 in assay [5] came out at 1030 nM.

As to `CC(=O)Nc1cc(Nc2cccc(NC(=O)c3cccc(C4CC4)c3)c2)ccn1`, the half-inhibitory concentration (IC50) in assay [1] turned out to be 367 nM; in assay [2] it was 236 nM; in assay [3], 131 nM; in assay [5] it was 50 nM; in assay [4], 1200 nM.

As to `CC(C)c1cccc(C(=O)Nc2cccc(Nc3ccnc(NC(=O)C4CC4)c3)c2)c1`, the IC50 in assay [1] amounted to 1060 nM; in assay [2], 462 nM; in assay [3] it was 444 nM; in assay [5] it was 13 nM; in assay [4], 148 nM.

`N#CC1(c2cccc(C(=O)Nc3cccc(Nc4ccnc(NC(=O)C5CC5)c4)c3)c2)CC1`: the IC50 in assay [1] was 1350 nM; in assay [2], 791 nM; in assay [3], 725 nM; in assay [5] it was 79 nM; in assay [4] it was 2030 nM.

With `CC(C)C(=O)Nc1cc(Nc2cccc(NC(=O)c3cccc(C4CC4)c3)c2)ccn1`, the concentration for half-maximal inhibition (IC50) in assay [5] was 420 nM.

In the case of `Cc1cccc(C(=O)Nc2cccc(Nc3ccnc(NC(=O)C4CC4)c3)c2)c1`, the IC50 in assay [5] turned out to be 1210 nM.

On to `O=C(Nc1cccc(Nc2ccnc(NC(=O)C3CCCC3)c2)c1)c1cccc(C2CC2)c1`, for which, in assay [5], the IC50 worked out at 434 nM.

On to `CCCS(=O)(=O)Nc1ccc(F)c(C(=O)c2c[nH]c3ncc(-c4ccc(Cl)cc4)cc23)c1F` [VEMURAFENIB], for which the IC50 in assay [1] is 14600 nM; in assay [2], 156 nM; in assay [3], 44 nM.
